Assay results from patent publication US20250059144A1, “Tellurium-containing compounds and the use of treating bacterial infections thereof” (Kaohsiung Medical University, priority 2021, published 2025).
Where “and” joins values, the source holds several entries; their conditions need not be identical. Identical values can stand only once. Like-named read-outs stand apart in the source and are kept apart here.

What was measured:
[1] = system: Klebsiella pneumoniae strain CRE-723; experiment: MIC in cation-adjusted Muller-Hinton broth; type: cell-based
From the text: (§1) Compound (c) was therefore used for further evaluation of anti-bacterial activities to carbapenem resistant bacteria involving Escherichia coli, Klebsiella pneumoniae, Pseudomonas aeruginosa, and Acinetobacter baumannii in the following experiments.

[2] = system: Klebsiella pneumoniae ATCC BAA-1705; experiment: MIC in cation-adjusted Muller-Hinton broth; type: cell-based
From the text: as §1

[3] = system: Pseudomonas aeruginosa strain PA13; experiment: MIC in cation-adjusted Muller-Hinton broth; type: cell-based
From the text: as §1

Escherichia coli CRE-415 = experiment: MIC in cation-adjusted Muller-Hinton broth; type: cell-based
From the text: as §1

[4] = system: Acinetobacter baumannii strain AB03; experiment: MIC in cation-adjusted Muller-Hinton broth; type: cell-based
From the text: as §1

[5] = system: carbapenem-resistant Klebsiella pneumoniae (n = 34); experiment: MICs in carbapenem-resistant isolate panel; type: cell-based; details: K. pneumoniae (n = 34)
From the text: as §1
(§2) 34 carbapenem-resistant Klebsiella pneumoniae, 34 carbapenem-resistant Escherichia coli, 29 carbapenem-resistant Pseudomonas aeruginosa isolated from infected blood, and 28 carbapenem-resistant Acinetobacter baumannii isolated from infected blood were selected to evaluate the anti-bacterial activities of compounds (c).

[6] = system: carbapenem-resistant Escherichia coli (n = 34); experiment: MICs in carbapenem-resistant isolate panel; type: cell-based; details: E. coli (n = 34)
From the text: as §1, §2

[7] = system: carbapenem-resistant Pseudomonas aeruginosa isolated from infected blood (n = 29); experiment: MICs in carbapenem-resistant isolate panel; type: cell-based; details: P. aeruginosa (n = 29)
From the text: as §1, §2

[8] = system: carbapenem-resistant Acinetobacter baumannii isolated from infected blood (n = 28); experiment: MICs in carbapenem-resistant isolate panel; type: cell-based; details: A. baumannii (n = 28)
From the text: as §1, §2

[9] = Histopathological lesion evaluation and severity score of surviving mice; type: in vivo
Protocol: In the experiment, 2 mice in the 20 and 25 mg/kg groups were randomly selected for euthanasia, the tissues involving heart, liver, spleen, lung, kidney, stomach, small intestine, large intestine, pancreatic were sliced and stained and were used for histopathological lesion evaluation and severity score by a professional pathology veterinarian (Disease Animal Special Certificate No. 0040).
Extremely light to slight monocyte infiltration in the heart was a lesion that were occasionally observed by a normal mouse might be irrelevant to experimental disposal, and a small number of monocyte infiltration cells could be observed in the portal vein area of the liver of most mice. Mild to moderate hepatocyte glycogen deposition were found in all mice, and significant swollen occurred in their liver cells, this was a common background lesions in normal mice in the case of sacrifice without sufficient fasting. It was worth noting that slight necrosis of the liver was only seen in No. 25-2. Increased mitosis in liver cell is one of the common regeneration or hyperplasia reactions for liver tissue damage. Compared with normal liver tissue, damaged liver tissue may have more mitosis cells, but it is also occasionally seen in normal mice. The mice of Nos. 20-1 and 25-2 had extremely slight to mild hepatocytes increased mitosis. It might be irrelevant to experimental disposal since the degree of increased mitosis was extremely mild to mild and was not related to the dose. Extramedullary hematopoiesis (EMH) are common lesions of mice liver tissue, it can be considered as background lesion if the degree is extremely mild. […] Besides, EMH is also common lesions occurred in spleen of mice and may exist in normal mice, the mild degree of EMH may be therefore considered as background lesions. Extremely mild to mild EMH lesions were found in spleen tissues of all mice. It could be found in the number 25-2 mouse spleen that its lymphoid follicle had multiple extremely mild apoptosis lesions, but no tissue necrosis was found. […] Chronic progressive nephropathy (CPN) involving lesions of tubule basophilia, basement membrane thickening, mononuclear inflammatory cells infiltration, glomerulosclerosis, or tubule dilatation is the most common kidney lesions in the kidney tissues of mice. The cause of CPN is unknown, it can be found in normal mice, and the incidence is increased depend on ages, male mice have a higher incidence than female mice. Therefore, it is generally not recommended to score CPN lesion separately. CPN may also occur after drug administration, it should be considered as treatment-related lesions if the severities have a significant difference in group differences. In this study, there were moderate or higher CPN lesions in each mouse kidney tissue, except for mouse of No. 25-2. However, the difference was not related to the dose and might not be related to the experimental disposal.

[10] = Acute toxicity test (survival, LD50); type: in vivo; details: male mice; for survival rate: one week observation
Protocol: In terms of acute toxicology, the dose-response relationship is represented in S-shaped curve. It is not easy to obtain the LD50 value directly through the experiment. Therefore, the animal survival rate of 20˜80% must be used as the benchmark, and the LD50 value is obtained by calculating the dose and survival rate of the area. Six male mice of each group were injected with 15, 20, and 25 mg/kg of compound (c) by intraperitoneal injection. After a week of behavior and physiological observations, the survival rate was recorded and applied for linear regression.

[11] = system: Acinetobacter baumannii strain AB03; experiment: Carbapenem-resistant Acinetobacter baumannii sepsis infection model; type: in vivo; details: 40 mg/kg/day, 3 days treatment, A. baumannii AB03 septic mice
Protocol: For establishing the carbapenem-resistant Acinetobacter baumannii sepsis infection model, 12 mice were separated in each group and were infected with the standard Acinetobacter baumannii strain AB03 with lethal dosage by intraperitoneal injection. The compound (c) was given to test groups at the dosage of 0.33, 1.67 and 3.33 mg/kg/day for 3 days treatment, respectively. The clinical standard therapy colistin methanesulfonate (CMS) (40 mg/kg/day) was selected as compared drug. 1×PBS was given as placebo group. Mice survival rate were observed four times a day and were recorded as the curve.

[12] = CRE723, read-out: MIC K. pneumoniae strain CRE-723
[13] = ATCCBAA1705, read-out: MIC K. pneumoniae ATCC BAA-1705
[14] = PA13, read-out: MIC P. aeruginosa strain PA13
[15] = CRE415, read-out: MIC E. coli CRE-415
[16] = AB03, read-out: MIC A. baumannii strain AB03
[17] = 20 mg/kg, mice 20-1, 20-2, day 7
[18] = 25 mg/kg, mice 25-1, 25-2, day 7

Cc1cc[n+]2c(c1)-c1cc(C)cc[n+]1[TeH]2(Cl)(Cl)Cl [compound (g)]
MIC [1, 12]: 16 µg/mL
MIC [2, 13]: 16 µg/mL
MIC [3, 14]: 4 µg/mL
MIC (Escherichia coli CRE-415; [15]): 16 µg/mL
MIC [4, 16]: 4 µg/mL

Cl[TeH]1(Cl)(Cl)OCCO1 [AS101]
MIC range [5]: <0.5~16 μg/mL
MIC50 ([5]; Klebsiella pneumoniae): 2 µg/mL
MIC90 ([5]; Klebsiella pneumoniae): 16 µg/mL
MIC range [6]: 0.5~32 μg/mL
MIC50 ([6]; Escherichia coli): 4 µg/mL
MIC90 ([6]; Escherichia coli): 8 µg/mL
MIC50 [7]: 64 µg/mL
MIC90 [7]: > 64 µg/mL
MIC range [8]: <0.5~8 μg/mL
MIC50 ([8]; Acinetobacter baumannii): 2 µg/mL
MIC90 ([8]; Acinetobacter baumannii): 4 µg/mL

Cl[Te]1(Cl)Nc2ccccc2N1 [compound (a)]
MIC [1, 12]: 2 µg/mL
MIC [2, 13]: 4 µg/mL
MIC [3, 14]: 2 µg/mL
MIC (Escherichia coli CRE-415; [15]): 1 µg/mL
MIC [4, 16]: 1 µg/mL

[2H]C1([2H])O[TeH](Cl)(Cl)(Cl)OC1([2H])[2H] [compound (d)]
MIC ([1]; CRE723, CAMHB, read-out: MIC K. pneumoniae strain CRE-723): 8 µg/mL
MIC ([2]; ATCCBAA1705, CAMHB, read-out: MIC K. pneumoniae ATCC BAA-1705): 8 µg/mL
MIC ([3]; PA13, CAMHB, read-out: MIC P. aeruginosa strain PA13): 1 µg/mL
MIC (Escherichia coli CRE-415; CRE415, CAMHB, read-out: MIC E. coli CRE-415): 1 µg/mL
MIC ([4]; AB03, CAMHB, read-out: MIC A. baumannii strain AB03): 1 µg/mL

Cl[TeH]1(Cl)(Cl)[n+]2ccccc2-c2cccc[n+]21 [compound (b)]
MIC [1, 12]: 16 µg/mL
MIC [2, 13]: 16 µg/mL
MIC [3, 14]: 4 µg/mL
MIC (Escherichia coli CRE-415; [15]): 4 µg/mL
MIC [4, 16]: 2 µg/mL

Cl[TeH]1(Cl)(Cl)[n+]2cccc3ccc4ccc[n+]1c4c32 [compound (f)]
MIC [1, 12]: 4 µg/mL
MIC [2, 13]: 8 µg/mL
MIC [3, 14]: 2 µg/mL
MIC (Escherichia coli CRE-415; [15]): 8 µg/mL
MIC [4, 16]: 1 µg/mL

CN1CCN(C)[TeH]1(Cl)(Cl)Cl [compound (c)]
Heart Mononuclear cells infiltration severity score [9, 17]: 0
Heart Necrosis/ degeneration severity score [9, 17]: 0
Kidney Nephropathy, chronic progressive (CPN) severity score [9, 17]: 3 and 4
Large intestine Erosion/ ulcer severity score [9, 17]: 0
Large intestine Mononuclear cells infiltration severity score [9, 17]: 0
Liver Extramedullary hematopoiesis, EMH severity score [9, 17]: 1 and 2
Liver Glycogen deposition severity score [9, 17]: 3 and 4
Liver Increased mitosis severity score [9, 17]: 0
Liver Necrosis/ degeneration severity score [9, 17]: 0
Lung Mononuclear cells infiltration severity score [9, 17]: 0
Lung Necrosis/ degeneration severity score [9, 17]: 0
Pancreas Mononuclear cells infiltration severity score [9, 17]: 0
Pancreas Necrosis severity score [9, 17]: 0
Small intestine Erosion/ ulcer severity score [9, 17]: 0
Small intestine Mononuclear cells infiltration severity score [9, 17]: 0
Spleen Apoptosis severity score [9, 17]: 0
Spleen Extramedullary hematopoiesis, EMH severity score [9, 17]: 2
Spleen Necrosis severity score [9, 17]: 0
Stomach Erosion/ ulcer severity score [9, 17]: 0
Stomach Mononuclear cells infiltration severity score [9, 17]: 0
Heart Necrosis/ degeneration severity score [9, 18]: 0
Large intestine Erosion/ ulcer severity score [9, 18]: 0
Large intestine Mononuclear cells infiltration severity score [9, 18]: 0
Liver Increased mitosis severity score [9, 18]: 0
Liver Mononuclear cells infiltration severity score [9, 18]: 1
Lung Mononuclear cells infiltration severity score [9, 18]: 0
Lung Necrosis/ degeneration severity score [9, 18]: 0
Pancreas Mononuclear cells infiltration severity score [9, 18]: 0
Pancreas Necrosis severity score [9, 18]: 0
Small intestine Erosion/ ulcer severity score [9, 18]: 0
Small intestine Mononuclear cells infiltration severity score [9, 18]: 0
Spleen Extramedullary hematopoiesis, EMH severity score [9, 18]: 2 and 1
Spleen Necrosis severity score [9, 18]: 0
Stomach Erosion/ ulcer severity score [9, 18]: 0
Stomach Mononuclear cells infiltration severity score [9, 18]: 0
survival rate ([10]; 15 mg/kg intraperitoneal): 100%
survival rate ([10]; 20 mg/kg intraperitoneal): 83.3%
survival rate ([10]; 25 mg/kg intraperitoneal): 33.3%
LD50 ([10]; intraperitoneal, linear regression of 20 and 25 mg/kg survival): 23.3 mg/kg

colistin methanesulfonate [CMS]
survival rate [11]: 16.7%

Cl[TeH]1(Cl)(Cl)[n+]2ccccc2SSc2cccc[n+]21 [compound (e)]
MIC [1, 12]: 32 µg/mL
MIC [2, 13]: 16 µg/mL
MIC [3, 14]: 16 µg/mL
MIC (Escherichia coli CRE-415; [15]): 4 µg/mL
MIC [4, 16]: 4 µg/mL

Cc1ccc2[n+](c1)[TeH](Cl)(Cl)(Cl)[n+]1cc(C)ccc1-2 [compound (h)]
MIC [1, 12]: 16 µg/mL
MIC [2, 13]: 8 µg/mL
MIC [3, 14]: 8 µg/mL
MIC (Escherichia coli CRE-415; [15]): 4 µg/mL
MIC [4, 16]: 4 µg/mL
